Measured values published in patent publication US20230346745A1, “AGENT FOR PREVENTING OR TREATING TAUOPATHY” (FUJIFILM Toyama Chemical Co., Ltd., priority 2017, published 2023).

What was measured:
Assay type in all cases: in vivo, human
Aβ-42 = assay: Phase II placebo-controlled trial: cerebrospinal fluid biomarker Aβ-42 (sandwich ELISA); conditions: CSF, mild to moderate AD patients
Text: (§1) Test Example 1 Multicenter randomized double-blind phase II placebo-controlled trial for assessing effectiveness and safety of Compound A in mild to moderate AD patients Subject (selection criteria): Patients were screened in a period from 42 days before treatment assignment to the assignment based on the following selection criteria. • Patients who were probable AD and are 55 years old or older and 85 years old or younger at the time of obtaining consent of screening. • Patients with an MMSE score of 12 to 22 at the time of screening • Patients with a Modified Hachinski Ischemia Scale score of 4 or less • Patients who have been treated with a donepezil hydrochloride or rivastigmine transdermal system for at least 4 months before the baseline and with a stable dose thereof for 3 months before the baseline. • In the case of patients who have received memantine in addition to being treated with a donepezil hydrochloride or rivastigmine transdermal system, patients who have been treated with memantine for at least 4 months before the baseline and with a stable dose thereof for 3 months before the baseline. • Patients whose brain MRI or CT results match AD at the time of screening Organization of groups: Patients matched (484 patients) were randomly divided into the following 3 groups and the trial was started. (1) High dose group: 224 mg of a test compound (160 mg in terms of Compound A) was orally administered once a day for 4 weeks and then 448 mg of a test compound (320 mg in terms of Compound A) was orally administered once a day for 48 weeks (158 patients) (2) Low dose group: 224 mg of a test compound (160 mg in terms of Compound A) was orally administered once a day for 52 weeks (166 patients) (3) Placebo group: placebo was orally administered once a day for 52 weeks (158 patients) Method of assessment: Cerebrospinal fluid biomarker
(§2) Cerebrospinal fluid was collected by lumber puncture from subjects at baseline (within 2 weeks before the first day of administration of investigational drug) and after 52 weeks (within 2 weeks before week 52), and divided into 9-ml aliquots in polyethylene tubes and stored at -80° C. The total tau protein concentration (total-Tau) in the cerebrospinal fluid was measured by an ECL method. The phosphorylated tau protein concentration (p-Tau) was measured by ELISA method. The Aβ-42 value in the cerebrospinal fluid was measured by sandwich ELIZA which has been designed for measurement of AP including 1 amino acid and 42 amino acids.
(§3) Change in cerebrospinal fluid (CSF) biomarkers at week 52 from the baseline was compared by analysis of covariance between a high dose group and a placebo group, and between a low dose group and the placebo group. […]

p-Tau/total-Tau = assay: Phase II placebo-controlled trial: ratio p-Tau/total-Tau in cerebrospinal fluid; conditions: CSF, AD patients; for p-Tau/total-Tau change at week 52 from baseline, difference from placebo group / p-Tau/total-Tau change at week 52 from baseline, least square means (standard error): First total-Tau measurement (Table 2); for p-Tau/total-Tau (remeasured total-Tau) change at week 52 from baseline, difference from placebo group / p-Tau/total-Tau (remeasured total-Tau) change at week 52 from baseline, least square means (standard error): Total-Tau concentration remeasured (Table 3)
Text: as §1, §2
(§4) The total-Tau concentration was measured twice using the same cerebrospinal fluid sample.
(§5) Change in cerebrospinal fluid (CSF) biomarkers at week 52 from the baseline was compared by analysis of covariance between a high dose group and a placebo group, and between a low dose group and the placebo group. For models, the baseline of cerebrospinal fluid (CSF) biomarkers was included as a covariate and the significance level was 5%.

Aβ = assay: Phase II placebo-controlled trial: concentration of Aβ in cerebrospinal fluid (overall statement); conditions: Compound A group compared to the placebo group; mild to moderate AD patients
Text: as §1, with “(1) High dose group: 224 mg of a test compound (160 mg in terms of Compound A) was orally administered once a day for 4 weeks and then 448 mg of a test compound (320 mg in terms of Compound A) was orally administered once a day for 48 weeks (158 patients) (2) Low dose group: 224 mg of a test compound (160 mg in terms of Compound A) was orally administered once a day for 52 weeks (166 patients) (3) Placebo group: placebo was orally administered once a day for 52 weeks (158 patients) Method of assessment: Cerebrospinal fluid biomarker” left out

[1] = system: total tau protein (total-Tau); assay: Phase II placebo-controlled trial: cerebrospinal fluid biomarker total-Tau (ECL method, measured twice); conditions: CSF, AD patients; for total-Tau change at week 52 from baseline, difference from placebo group / total-Tau change at week 52 from baseline, least square means (standard error): First measurement (Table 2); for total-Tau (remeasured) change at week 52 from baseline, difference from placebo group / total-Tau (remeasured) change at week 52 from baseline, least square means (standard error): Total-Tau concentration remeasured (Table 3)
Text: as §1, §2, §4, §5

Aβ-38 = assay: Phase II placebo-controlled trial: cerebrospinal fluid biomarker Aβ-38; conditions: CSF, mild to moderate AD patients
Text: as §1, §2, §3

Aβ-40 = assay: Phase II placebo-controlled trial: cerebrospinal fluid biomarker Aβ-40; conditions: CSF, mild to moderate AD patients
Text: as §1, §2, §3

[2] = system: phosphorylated tau protein (p-Tau); assay: Phase II placebo-controlled trial: cerebrospinal fluid biomarker p-Tau (ELISA); conditions: for p-Tau change at week 52 from baseline, difference from placebo group / p-Tau change at week 52 from baseline, least square means (standard error): CSF
Text: as §1, §2, §5

[3] = High dose group: 160 mg 4 weeks then 320 mg 48 weeks in terms of Compound A, oral once a day
[4] = Low dose group: 160 mg in terms of Compound A, oral once a day 52 weeks
[5] = High dose group: 160 mg 4 weeks then 320 mg 48 weeks in terms of Compound A, oral once a day, mild to moderate AD patients
[6] = Low dose group: 160 mg in terms of Compound A, oral once a day 52 weeks, mild to moderate AD patients

OC1CN(CCCOCCc2ccc3sccc3c2)C1 [Compound A, 1-(3-(2-(1-benzothiophen-5-yl)ethoxy)propyl)azetidin-3-ol]
Aβ-42 change at week 52 from baseline, difference from placebo group (Aβ-42; [3]): 32.90 pg/mL
Aβ-42 change at week 52 from baseline, least square means (standard error) (Aβ-42; [3]): 11.55(25.578) pg/mL
Aβ-42 change at week 52 from baseline, difference from placebo group (Aβ-42; [4]): 11.65 pg/mL
Aβ-42 change at week 52 from baseline, least square means (standard error) (Aβ-42; [4]): −9.70(30.362) pg/mL
p-Tau/total-Tau change at week 52 from baseline, difference from placebo group (p-Tau/total-Tau; [3]): −11.11%
p-Tau/total-Tau change at week 52 from baseline, least square means (standard error) (p-Tau/total-Tau; [3]): −4.47(3.21) %
p-Tau/total-Tau change at week 52 from baseline, difference from placebo group (p-Tau/total-Tau; [4]): −4.60%
p-Tau/total-Tau change at week 52 from baseline, least square means (standard error) (p-Tau/total-Tau; [4]): 2.04(4.33) %
p-Tau/total-Tau (remeasured total-Tau) change at week 52 from baseline, difference from placebo group (p-Tau/total-Tau; [3]): 0.26%
p-Tau/total-Tau (remeasured total-Tau) change at week 52 from baseline, least square means (standard error) (p-Tau/total-Tau; [3]): 0.04(0.17) %
p-Tau/total-Tau (remeasured total-Tau) change at week 52 from baseline, difference from placebo group (p-Tau/total-Tau; [4]): 0.03%
p-Tau/total-Tau (remeasured total-Tau) change at week 52 from baseline, least square means (standard error) (p-Tau/total-Tau; [4]): −0.20(0.20) %
change in the concentration of AP in the cerebrospinal fluid at week 52 from the baseline (Aβ): tended to be increased in a dose dependent manner
total-Tau change at week 52 from baseline, difference from placebo group [1, 3]: 81.94 pg/mL
total-Tau change at week 52 from baseline, least square means (standard error) [1, 3]: 11.38(47.304) pg/mL
total-Tau change at week 52 from baseline, difference from placebo group [1, 4]: 28.19 pg/mL
total-Tau change at week 52 from baseline, least square means (standard error) [1, 4]: −42.36(63.947) pg/mL
total-Tau (remeasured) change at week 52 from baseline, difference from placebo group [1, 3]: -129.57 pg/mL
total-Tau (remeasured) change at week 52 from baseline, least square means (standard error) [1, 3]: −101.35 (32.552) pg/mL
total-Tau (remeasured) change at week 52 from baseline, difference from placebo group [1, 4]: -36.10 pg/mL
total-Tau (remeasured) change at week 52 from baseline, least square means (standard error) [1, 4]: −7.88 (38.632) pg/mL
Aβ-38 change at week 52 from baseline, difference from placebo group (Aβ-38; [3]): 525.66 pg/mL
Aβ-38 change at week 52 from baseline, least square means (standard error) (Aβ-38; [3]): 178.64(221.978) pg/mL
Aβ-38 change at week 52 from baseline, difference from placebo group (Aβ-38; [4]): 127.43 pg/mL
Aβ-38 change at week 52 from baseline, least square means (standard error) (Aβ-38; [4]): −219.58(266.774) pg/mL
Aβ-40 change at week 52 from baseline, difference from placebo group (Aβ-40; [3]): 1206.87 pg/mL
Aβ-40 change at week 52 from baseline, least square means (standard error) (Aβ-40; [3]): 290.84(466.956) pg/mL
Aβ-40 change at week 52 from baseline, difference from placebo group (Aβ-40; [4]): 75.71 pg/mL
Aβ-40 change at week 52 from baseline, least square means (standard error) (Aβ-40; [4]): −840.32(559.467) pg/mL
change in the concentration of p-Tau in the cerebrospinal fluid at week 52 from the baseline ([2]; Compound A group compared to the placebo group, mild to moderate AD patients): consistently tended to be decreased in a dose-dependent manner
change in the concentration of p-Tau in the cerebrospinal fluid at week 52 from the baseline, statistical comparison ([2]; Compound A high dose group versus placebo group, analysis of covariance, significance level 5%): statistically significant difference
p-Tau change at week 52 from baseline, difference from placebo group [2, 5]: -7.59 pg/mL
p-Tau change at week 52 from baseline, least square means (standard error) [2, 5]: −7.30(2.281) pg/mL
p-Tau change at week 52 from baseline, difference from placebo group [2, 6]: -4.23 pg/mL
p-Tau change at week 52 from baseline, least square means (standard error) [2, 6]: −3.94(2.715) pg/mL
